Here are results for 10 molecules from US20260116867A1, “PROTEOLYSIS TARGETING CHIMERAS FOR HUMAN PREGNANE X RECEPTOR AND FOR DEGRADATION OF GSPT1” (ST. JUDE CHILDREN'S RESEARCH HOSPITAL, priority 2022, published 2026).

For orientation: inhibition means the change of the read-out against control, counted positive when it falls. As usually defined, the EC50 is the concentration needed to bring the measured effect to its halfway point.

The target of series [1] is T1, PXR (Homo sapiens, UniProt O75469).
T1 sequence (O75469 1-434): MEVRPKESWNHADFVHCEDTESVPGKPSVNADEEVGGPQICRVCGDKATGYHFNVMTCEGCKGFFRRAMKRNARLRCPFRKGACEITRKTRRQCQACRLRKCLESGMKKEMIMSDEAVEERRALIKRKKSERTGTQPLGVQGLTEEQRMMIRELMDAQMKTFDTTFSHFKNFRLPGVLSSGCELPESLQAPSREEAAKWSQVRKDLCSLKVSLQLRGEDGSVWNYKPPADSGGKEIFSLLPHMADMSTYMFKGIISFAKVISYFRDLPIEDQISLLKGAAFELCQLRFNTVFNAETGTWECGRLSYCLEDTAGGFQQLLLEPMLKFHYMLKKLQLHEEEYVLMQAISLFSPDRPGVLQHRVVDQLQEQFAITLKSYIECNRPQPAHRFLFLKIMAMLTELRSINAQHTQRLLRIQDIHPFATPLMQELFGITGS
The experiment in a line: cell-based hPXR antagonistic assay. The note with it: for inhibition at 10 µM: read-out: Antagonist (% inhibition at 10 μM); for IC50: read-out: Antagonist (IC50/μM).

The target in series [2] is T1, PXR. The experiment in a line: cell-based hPXR inverse agonistic assay. Conditions: for inhibition at 10 µM: read-out: Inverse agonist (% inhibition at 10 μM); for IC50: read-out: Inverse agonist (IC50/μM).
Series [3] has as its target T1, PXR. The experiment in a line: hPXR binding assay. Conditions: for inhibition at 10 µM: read-out: Binding (% inhibition at 10 μM).
Another series addresses T2, GSPT1 (Homo sapiens, UniProt P15170+Q96SW2).
T2 construct: endogenous in cells
The experiment in a line: Western blot of GSPT1 protein in SNU—C4 3xFLAG-PXR KI cells. The format is cell-based. Conditions: for GSPT1 Loss at 10 μM (% ± SD): 10 μM compound, calculated from western blots FIG. 9A; for GSPT1 degradation (in words): western blot, SNU—C4 3xFLAG-PXR KI cells. As for the experimental part: The following day, DMSO or compounds were added to result in 0.5% DMSO and the indicated compound concentrations, and cells were incubated for the indicated time points. Cells were lysed and subjected to western blotting as above using antibodies against FLAG (Sigma-Aldrich, cat. #F3165, 1:2,000 dilution), GSPT1 (Abcam, cat. #ab126090, 1:4,000 dilution), and R-Actin (Cell Signaling Technology, cat. #4967, 1:2,000 dilution).

The target in a further series is T3, His-CRBN/DDB1 (Homo sapiens, UniProt Q96SW2).
T3 construct: made in house; host or cells: Sf9 insect cells (baculovirus)
Nature of the series: TR-FRET CRBN competitive binding assay (BODIPY FL thalidomide probe). Conditions: for CRBN binding (in words): FIG. 9D; for EC50: TR-FRET competitive binding, derived from FIG. 9D, read-out: CRBN Binding EC50 ± SD. As for the experimental part:
The pFastBacDual-6xHis-CRBN/DDB1 plasmid was cloned by GenScript and used for baculoviral expression of His-CRBN and untagged DDB1. Protein was expressed and purified essentially as described previously. The bacmid was produced in MAX Efficiency DH10Bac Competent Cells (Thermo Fisher Scientific) according to the manufacturer's instructions. To generate the P1 virus, 1×10^6 Sf9 cells were plated in each well of a six-well plate in 2 mL Sf-900 III SFM and transfected with 7 μg bacmid using Cellfectin II reagent (Thermo Fisher Scientific). After 6 h at 27° C., the media was replaced with 2 mL fresh Sf-900 III SFM. After three days, the supernatant was collected, centrifuged at 500×g for 5 min to remove cells and debris, transferred to new tubes, and stored at 4° C. To generate P2 virus, 2 mL P1 virus was added to 1×10^8 Sf9 cells in 50 mL Sf-900 III SFM and shaken at 27° C. for three days. The supernatant was collected and clarified as above. For protein expression, 5 mL P2 virus was added to each liter of Sf cells (2×10^6 cells/mL) and shaken at 27° C. for three days. Cells containing expressed protein were pelleted by centrifugation at 500×g for 5 min, the supernatant was removed, and pellets were stored at −80° C. until processing. […] The suspension was incubated on ice for 1 h, gently sonicated, and centrifuged for 1 h at 40,000×g at 4° C. The supernatant was applied to Ni-NTA Superflow resin (QIAGEN) equilibrated with lysis buffer. The resin was washed with 10 column volumes (CV) of lysis buffer, and proteins were eluted with 10 CV lysis buffer containing 500 mM imidazole. The solution was diluted to 200 mM NaCl using lysis buffer without NaCl and applied to a HiTrap ANX FF (High Sub) column (Cytiva) equilibrated with ANX binding buffer [50 mM Tris (pH 7.5), 200 mM NaCl, 3 mM TCEP]. The column was washed with 10 CV ANX binding buffer followed by 10 CV ANX wash buffer [50 mM Bis-Tris (pH 6.0), 200 mM NaCl, 3 mM TCEP]. A 20 CV linear gradient was then immediately applied from ANX binding buffer to ANX binding buffer containing 1 M NaCl using an AKTA avant chromatography system (Cytiva). The purest fractions were applied to a HiLoad 26/600 Superdex 200 pg size exclusion column equilibrated with 10 mM HEPES (pH 7.0), 240 mM NaCl, and 3 mM TCEP. Pure protein was concentrated to 20-30 mg/mL in Pierce PES Protein Concentrators (Thermo Fisher Scientific), flash frozen in liquid nitrogen, and stored at −80° C.
The assay buffer composition was 50 mM Tris (pH 7.5), 0.1% Triton X-100, 0.01% bovine serum albumin, and 1 mM DTT. […] Lastly, 5 μL/well of 8 nM Tb-anti-His and 8 nM His-CRBN/DDB1 in assay buffer was added. […] The plates were then protected from light exposure and incubated for 60 minutes at room temperature (RT). After incubation, the TR-FRET signal from each well was collected with a PHERAstar FS Microplate Reader (BMG Labtech). The percent inhibition for each well was calculated using equation 2: […]

Consider `COc1ccc(OC)c(-n2nnc(C(=O)Nc3cc(OCCCCN4C(=O)CCC(N5Cc6c(N)cccc6C5=O)C4=O)cc(C(C)(C)C)c3)c2C)c1` (stereo not shown) [Compound N4, N-(3-(4-(3-(4-amino-1-oxoisoindolin-2-yl)-2,6-dioxopiperidin-1-yl)butoxy)-5-(tert-butyl)phenyl)-1-(2,5-dimethoxyphenyl)-5-methyl-1H-1,2,3-triazole-4-carboxamide], for which the inhibition at 10 µM worked out at 103% at PXR [1], 97% at PXR [2] and 37% on PXR [3]. In addition, the IC50 came out at 0.17 ± 0.0045 µM on PXR [1], 0.044 ± 0.008 µM at PXR [2] and 0.087 ± 0.022 µM on PXR [3].
For the molecule `COc1ccc(OC)c(-n2nnc(C(=O)Nc3cc(NC(=O)CNc4cccc5c4C(=O)N(C4CCC(=O)NC4=O)C5=O)cc(C(C)(C)C)c3)c2C)c1` (stereo not shown) [Compound M8, N-(3-(tert-butyl)-5-(2-((2-(2,6-dioxopiperidin-3-yl)-1,3-dioxoisoindolin-4-yl)amino)acetamido)phenyl)-1-(2,5-dimethoxyphenyl)-5-methyl-1H-1,2,3-triazole-4-carboxamide], on GSPT1, the “GSPT1 Loss at 10 μM (% ± SD)” value is 89 ± 3.1% and the “GSPT1 degradation (in words)” value is listed as “strong GSPT1 degradation”. Moreover, the “CRBN binding (in words)” value at His-CRBN/DDB1 was “retained strong binding of CRBN”. Moreover, at PXR [2], the inhibition at 10 µM worked out at 19% and the IC50 was 13.2 ± 1.28 µM.
For the molecule `COc1ccc(OC)c(-n2nnc(C(=O)Nc3cc(OCC(=O)Nc4cccc5c4C(=O)N(C4CCC(=O)NC4=O)C5=O)cc(C(C)(C)C)c3)c2C)c1` (stereo not shown) [Compound M9, N-(3-(tert-butyl)-5-(2-((2-(2,6-dioxopiperidin-3-yl)-1,3-dioxoisoindolin-4-yl)amino)-2-oxoethoxy)phenyl)-1-(2,5-dimethoxyphenyl)-5-methyl-1H-1,2,3-triazole-4-carboxamide], the “GSPT1 Loss at 10 μM (% ± SD)” value at GSPT1 is given as 20 ± 4.8%. At His-CRBN/DDB1, the “CRBN binding (in words)” value is reported as “greatly reduced CRBN binding” and the EC50 is over 333 nM.
As for `COc1ccc(OC)c(-n2nnc(C(=O)Nc3cc(OCCCCNc4cccc5c4CN(C4CCC(=O)NC4=O)C5=O)cc(C(C)(C)C)c3)c2C)c1` (stereo not shown) [Compound M14, N-(3-(tert-butyl)-5-(4-((2-(2,6-dioxopiperidin-3-yl)-1-oxoisoindolin-4-yl)amino)butoxy)phenyl)-1-(2,5-dimethoxyphenyl)-5-methyl-1H-1,2,3-triazole-4-carboxamide], the inhibition at 10 µM on PXR [1] is 82%; on PXR [2] it was 94%; at PXR [3], 22%. The IC50 on PXR [1] turned out to be 1.86 ± 0.53 µM; at PXR [2] it was 0.43 ± 0.14 µM; on PXR [3], 0.13 ± 0.051 µM.
On to `COc1ccc(OC)c(-n2nnc(C(=O)Nc3cc(NC(=O)COCCOCCOCCOCCNc4cccc5c4C(=O)N(C4CCC(=O)NC4=O)C5=O)cc(C(C)(C)C)c3)c2C)c1` (stereo not shown) [Compound M17, N-(3-(tert-butyl)-5-(14-((2-(2,6-dioxopiperidin-3-yl)-1,3-dioxoisoindolin-4-yl)amino)-3,6,9,12-tetraoxatetradecanamido)phenyl)-1-(2,5-dimethoxyphenyl)-5-methyl-1H-1,2,3-triazole-4-carboxamide], for which the inhibition at 10 µM on PXR [1] was determined as 70%. Moreover, at PXR [2], the inhibition at 10 µM worked out at 84% and the IC50 is 1.98 ± 0.25 µM.
Consider `COc1ccc(OC)c(-n2nnc(C(=O)Nc3cc(OCCOCCOCCOCCOCCOCCN4C(=O)CCC(N5C(=O)c6cccc(N)c6C5=O)C4=O)cc(C(C)(C)C)c3)c2C)c1` (stereo not shown) [Compound N7, N-(3-((17-(3-(4-amino-1,3-dioxoisoindolin-2-yl)-2,6-dioxopiperidin-1-yl)-3,6,9,12,15-pentaoxaheptadecyl)oxy)-5-(tert-butyl)phenyl)-1-(2,5-dimethoxyphenyl)-5-methyl-1H-1,2,3-triazole-4-carboxamide], for which the inhibition at 10 µM on PXR [1] worked out at 83%; at PXR [2] it was 36%; at PXR [3], 48%. Moreover, the IC50 on PXR [1] stood at 0.52 ± 0.095 µM; on PXR [2], 1.12 ± 0.3 µM; on PXR [3], 0.43 ± 0.027 µM.
For `COc1ccc(OC)c(-n2nnc(S(=O)(=O)c3ccc(C(C)(C)C)cc3)c2C)c1` [SPA70, reference compound], the EC50 on His-CRBN/DDB1 is over 3000 nM.
Take `COc1ccc(OC)c(-n2nnc(C(=O)Nc3cc(C(C)(C)C)ccc3OCCOCCOCCOCCN3C(=O)CCC(N4Cc5c(N)cccc5C4=O)C3=O)c2C)c1` (stereo not shown) [Compound N2, N-(2-(2-(2-(2-(2-(3-(4-amino-1-oxoisoindolin-2-yl)-2,6-dioxopiperidin-1-yl)ethoxy)ethoxy)ethoxy)ethoxy)-5-(tert-butyl)phenyl)-1-(2,5-dimethoxyphenyl)-5-methyl-1H-1,2,3-triazole-4-carboxamide]: at PXR [1], the inhibition at 10 µM is 32% and the IC50 worked out at 5 ± 1.16 µM. Further, at PXR [3], the IC50 was found to be 7.23 ± 4.88 µM and the inhibition at 10 µM was found to be 27%.
On to `CC(C)(C)c1cc(N)cc(Oc2cccc3c2C(=O)N(C2CCC(=O)NC2=O)C3=O)c1` (stereo not shown) [Compound A1, 4-(3-amino-5-(tert-butyl)phenoxy)-2-(2,6-dioxopiperidin-3-yl)isoindoline-1,3-dione], for which, on GSPT1, the “GSPT1 Loss at 10 μM (% ± SD)” value was 23 ± 2.8% and the “GSPT1 degradation (in words)” value is on record as “lost the degradation activity of GSPT1”. Moreover, the “CRBN binding (in words)” value at His-CRBN/DDB1 is given as “maintained strong CRBN binding”.
Turning to `COc1ccc(OC)c(-n2nnc(C(=O)Nc3cc(Nc4cccc5c4C(=O)N(C4CCC(=O)NC4=O)C5=O)cc(C(C)(C)C)c3)c2C)c1` (stereo not shown) [Compound M5, N-(3-(tert-butyl)-5-((2-(2,6-dioxopiperidin-3-yl)-1,3-dioxoisoindolin-4-yl)amino)phenyl)-1-(2,5-dimethoxyphenyl)-5-methyl-1H-1,2,3-triazole-4-carboxamide], the inhibition at 10 µM at PXR [1] was determined as 107%; on PXR [2], 141%; at PXR [3], 69%. The IC50 on PXR [1] worked out at 0.052 ± 0.0066 µM; at PXR [2], 0.0078 ± 0.002 µM; on PXR [3] it was 0.083 ± 0.0041 µM.
